According to PubChem BioAssay AID1963431 (Molecular Pharmacology Branch, DTP, NCI, 2024):

Tested on: Rh18 complex spheroid viability, percent test/control
Assay: Anticancer human tumor Rh18 cell line growth inhibition [Asc];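 note: spheroids exposed to compound for 7 days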;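 for viability, T/C: 100% = DMSO vehicle control wells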
Conditions: for IC50: curve of first compound; for viability, T/C: stronger effect = lower value
In short: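 Spheroid model: tumor line + HUVEC + hMSC. Single agents and combinations; top conc. at/near clinical Cmax (10 microM if undetermined), half-log dilutions. DMSO stocks at 800-fold test concentration.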

## NC1CCC(NC2CC2c2ccccc2)CC1 (stereo not given) + CCN1C(C(=O)NC23CCC(C(=O)O)(CC2)CC3)C(c2cccc(Cl)c2F)C2(C(=O)Nc3cc(Cl)ccc32)C12CCCCC2
Second compound 0.03 µM
  IC50: < 316 pM
Second compound 0.0949 µM
  IC50: < 316 pM
Second compound 0.3 µM
  IC50: < 316 pM
Second compound 0.949 µM
  IC50: < 316 pM
Second compound 3 µM
  IC50: < 316 pM
Second compound 0.03 µM, first compound 0.000316 µM
  viability, T/C: 31.7%
Second compound 0.03 µM, first compound 0.001 µM
  viability, T/C: 31.3%
Second compound 0.03 µM, first compound 0.00316 µM
  viability, T/C: 30.4%
Second compound 0.03 µM, first compound 0.01 µM
  viability, T/C: 29.5%
Second compound 0.03 µM, first compound 0.0316 µM
  viability, T/C: 33.9%
Second compound 0.03 µM, first compound 0.1 µM
  viability, T/C: 34.5%
Second compound 0.0949 µM, first compound 0.000316 µM
  viability, T/C: 19.3%
Second compound 0.0949 µM, first compound 0.001 µM
  viability, T/C: 23.4%
Second compound 0.0949 µM, first compound 0.00316 µM
  viability, T/C: 18.8%
Second compound 0.0949 µM, first compound 0.01 µM
  viability, T/C: 19%
Second compound 0.0949 µM, first compound 0.0316 µM
  viability, T/C: 19.6%
Second compound 0.0949 µM, first compound 0.1 µM
  viability, T/C: 20.9%
Second compound 0.3 µM, first compound 0.000316 µM
  viability, T/C: 11.1%
Second compound 0.3 µM, first compound 0.001 µM
  viability, T/C: 13.3%
Second compound 0.3 µM, first compound 0.00316 µM
  viability, T/C: 13%
Second compound 0.3 µM, first compound 0.01 µM
  viability, T/C: 13.3%
Second compound 0.3 µM, first compound 0.0316 µM
  viability, T/C: 12.9%
Second compound 0.3 µM, first compound 0.1 µM
  viability, T/C: 14.4%
Second compound 0.949 µM, first compound 0.000316 µM
  viability, T/C: 11.6%
Second compound 0.949 µM, first compound 0.001 µM
  viability, T/C: 10.8%
Second compound 0.949 µM, first compound 0.00316 µM
  viability, T/C: 9.55%
Second compound 0.949 µM, first compound 0.01 µM
  viability, T/C: 8.96%
Second compound 0.949 µM, first compound 0.0316 µM
  viability, T/C: 10.3%
Second compound 0.949 µM, first compound 0.1 µM
  viability, T/C: 11.3%
Second compound 3 µM, first compound 0.000316 µM
  viability, T/C: 11%
Second compound 3 µM, first compound 0.001 µM
  viability, T/C: 10.2%
Second compound 3 µM, first compound 0.00316 µM
  viability, T/C: 11.8%
Second compound 3 µM, first compound 0.01 µM
  viability, T/C: 10.1%
Second compound 3 µM, first compound 0.0316 µM
  viability, T/C: 8.61%
Second compound 3 µM, first compound 0.1 µM
  viability, T/C: 9.99%

## C=C(F)C(=O)N1CCN(c2nc(OCC3CCCN3C)nc3c2CCN(c2cccc4cccc(Cl)c24)C3)CC1CC#N (stereo not given) + CNC(C)C(=O)NC1CN(S(=O)(=O)c2cccc(S(=O)(=O)N3CCC4CCC(C(=O)NC(c5ccccc5)c5ccccc5)N4C(=O)C(NC(=O)C(C)NC)C3)c2)CCC2CCC(C(=O)NC(c3ccccc3)c3ccccc3)N2C1=O
Second compound 0.01 µM
  IC50: 484000 pM
Second compound 0.0316 µM
  IC50: 152000 pM
Second compound 0.1 µM
  IC50: < 31600 pM
Second compound 0.316 µM
  IC50: < 31600 pM
Second compound 1 µM
  IC50: < 31600 pM
Second compound 0.01 µM, first compound 0.0316 µM
  viability, T/C: 71%
Second compound 0.01 µM, first compound 0.1 µM
  viability, T/C: 70.1%
Second compound 0.01 µM, first compound 0.316 µM
  viability, T/C: 53.5%
Second compound 0.01 µM, first compound 1 µM
  viability, T/C: 40.7%
Second compound 0.01 µM, first compound 3.16 µM
  viability, T/C: 16.2%
Second compound 0.01 µM, first compound 10 µM
  viability, T/C: 0.19%
Second compound 0.0316 µM, first compound 0.0316 µM
  viability, T/C: 46.5%
Second compound 0.0316 µM, first compound 0.1 µM
  viability, T/C: 62.6%
Second compound 0.0316 µM, first compound 0.316 µM
  viability, T/C: 39.8%
Second compound 0.0316 µM, first compound 1 µM
  viability, T/C: 39.7%
Second compound 0.0316 µM, first compound 3.16 µM
  viability, T/C: 14.8%
Second compound 0.0316 µM, first compound 10 µM
  viability, T/C: 0.18%
Second compound 0.1 µM, first compound 0.0316 µM
  viability, T/C: 41.6%
Second compound 0.1 µM, first compound 0.1 µM
  viability, T/C: 42.2%
Second compound 0.1 µM, first compound 0.316 µM
  viability, T/C: 43.8%
Second compound 0.1 µM, first compound 1 µM
  viability, T/C: 34.4%
Second compound 0.1 µM, first compound 3.16 µM
  viability, T/C: 10.1%
Second compound 0.1 µM, first compound 10 µM
  viability, T/C: 0.19%
Second compound 0.316 µM, first compound 0.0316 µM
  viability, T/C: 49.4%
Second compound 0.316 µM, first compound 0.1 µM
  viability, T/C: 49%
Second compound 0.316 µM, first compound 0.316 µM
  viability, T/C: 47.7%
Second compound 0.316 µM, first compound 1 µM
  viability, T/C: 39.2%
Second compound 0.316 µM, first compound 3.16 µM
  viability, T/C: 10.8%
Second compound 0.316 µM, first compound 10 µM
  viability, T/C: 0.19%
Second compound 1 µM, first compound 0.0316 µM
  viability, T/C: 42.3%
Second compound 1 µM, first compound 0.1 µM
  viability, T/C: 45.3%
Second compound 1 µM, first compound 0.316 µM
  viability, T/C: 37.7%
Second compound 1 µM, first compound 1 µM
  viability, T/C: 31.3%
Second compound 1 µM, first compound 3.16 µM
  viability, T/C: 6.38%
Second compound 1 µM, first compound 10 µM
  viability, T/C: 0.2%

## NC(=O)C(=Cn1cnc(-c2cc(C(F)(F)F)cc(C(F)(F)F)c2)n1)c1cncnc1 + Cc1c(S(C)(=O)=O)c(-c2cc(F)cc(N3CCN(c4ccc(NS(=O)(=O)c5ccc(NC(CCN6CCC(C(=O)OCCCP(=O)(O)O)CC6)CSc6ccccc6)c(S(=O)(=O)C(F)(F)F)c5)cc4)CC3)c2)c(-c2ccc(Cl)cc2)n1C(C)C
Second compound 0.1 µM
  IC50: < 949 pM
Second compound 0.316 µM
  IC50: < 949 pM
Second compound 1 µM
  IC50: < 949 pM
Second compound 3.16 µM
  IC50: < 949 pM
Second compound 10 µM
  IC50: < 949 pM
Second compound 0.1 µM, first compound 0.000949 µM
  viability, T/C: 13.5%
Second compound 0.1 µM, first compound 0.003 µM
  viability, T/C: 16.7%
Second compound 0.1 µM, first compound 0.00949 µM
  viability, T/C: 18.6%
Second compound 0.1 µM, first compound 0.03 µM
  viability, T/C: 13.7%
Second compound 0.1 µM, first compound 0.0949 µM
  viability, T/C: 9.41%
Second compound 0.1 µM, first compound 0.3 µM
  viability, T/C: 5.69%
Second compound 0.316 µM, first compound 0.000949 µM
  viability, T/C: 15.2%
Second compound 0.316 µM, first compound 0.003 µM
  viability, T/C: 13.6%
Second compound 0.316 µM, first compound 0.00949 µM
  viability, T/C: 10.8%
Second compound 0.316 µM, first compound 0.03 µM
  viability, T/C: 9.84%
Second compound 0.316 µM, first compound 0.0949 µM
  viability, T/C: 9.11%
Second compound 0.316 µM, first compound 0.3 µM
  viability, T/C: 3.67%
Second compound 1 µM, first compound 0.000949 µM
  viability, T/C: 10.2%
Second compound 1 µM, first compound 0.003 µM
  viability, T/C: 9.49%
Second compound 1 µM, first compound 0.00949 µM
  viability, T/C: 8.9%
Second compound 1 µM, first compound 0.03 µM
  viability, T/C: 7.48%
Second compound 1 µM, first compound 0.0949 µM
  viability, T/C: 7.03%
Second compound 1 µM, first compound 0.3 µM
  viability, T/C: 2.37%
Second compound 3.16 µM, first compound 0.000949 µM
  viability, T/C: 7.63%
Second compound 3.16 µM, first compound 0.003 µM
  viability, T/C: 8.78%
Second compound 3.16 µM, first compound 0.00949 µM
  viability, T/C: 7.9%
Second compound 3.16 µM, first compound 0.03 µM
  viability, T/C: 5.11%
Second compound 3.16 µM, first compound 0.0949 µM
  viability, T/C: 4.79%
Second compound 3.16 µM, first compound 0.3 µM
  viability, T/C: 2.11%
Second compound 10 µM, first compound 0.000949 µM
  viability, T/C: 4.44%
Second compound 10 µM, first compound 0.003 µM
  viability, T/C: 6.25%
Second compound 10 µM, first compound 0.00949 µM
  viability, T/C: 6.34%
Second compound 10 µM, first compound 0.03 µM
  viability, T/C: 5.72%
Second compound 10 µM, first compound 0.0949 µM
  viability, T/C: 3.51%
Second compound 10 µM, first compound 0.3 µM
  viability, T/C: 1.84%
